Measurements published in patent US9179678B2, “Substituted [1,2,4]triazoles and substituted tetrazoles as herbicides” (SYNGENTA LIMITED, priority 2012, dated 2015).

tested on: Alopecurus myosuroides (ALOMY); assay: Post-emergence glasshouse herbicide test; assay type: in vivo; settings: POST Application, 1000 g/h, after 13 days
Procedure: (§1) Seeds of a variety of test species are sown in standard soil in pots (Alopecurus myosuroides (ALOMY), Setaria faberi (SETFA), Echinochloa crus-galli (ECHCG), Solanum nigrum (SOLNI), Amaranthus retoflexus (AMARE), Ipomoea hederacea (IPOHE)). After cultivation for one day (pre-emergence) or after 8 days cultivation (post-emergence) under controlled conditions in a glasshouse (at 24/16° C., day/night; 14 hours light; 65% humidity), the plants are sprayed with an aqueous spray solution derived from the formulation of the technical active ingredient in acetone/water (50:50) solution containing 0.5% Tween 20 (polyoxyethelyene sorbitan monolaurate, CAS RN 9005-64-5). Compounds ae applied at 1000 g/h. The test plants are then grown in a glasshouse under controlled conditions in a glasshouse (at 24/16° C., day/night; 14 hours light; 65% humidity) and watered twice daily. After 13 days for pre and post-emergence, the test is evaluated for the percentage damage caused to the plant. The biological activities are shown in the following table on a five point scale (5=80-100%; 4=60-79%; 3=40-59%; 2=20-39%; 1=0-19%).

| SMILES | percentage damage caused to the plant, ALOMY |
| --- | --- |
| COc1ccc(-n2c(=O)c(C(=O)Nc3nnnn3C)nc3ccccc32)cc1F [Compound 5.033] | 1 (1=0-19%) |
| Cn1nnnc1NC(=O)c1nc2ccccc2n(-c2cccc([N+](=O)[O-])c2)c1=O [Compound 5.025] | 5 (5=80-100%) |
| Cn1nnnc1NC(=O)c1nc2ccccc2n(-c2ccc(Cl)cc2)c1=O [Compound 5.015] | 4 (4=60-79%) |
| Cn1ncnc1NC(=O)c1nc2ccccc2n(-c2ccccc2)c1=O [Compound 5.041] | 2 (2=20-39%) |
| Cc1nc2c(cc1F)cc(C(=O)Nc1nnnn1C)c(=O)n2-c1ccccc1 [Compound 6.003] | 1 (1=0-19%) |
| Cc1cccc(-n2c(=O)c(C(=O)Nc3nnnn3C)nc3ccccc32)n1 [Compound 5.003] | 5 (5=80-100%) |

tested on: Amaranthus retoflexus (AMARE); assay: Post-emergence glasshouse herbicide test; assay type: in vivo; settings: POST Application, 1000 g/h, after 13 days
Procedure: as §1

| SMILES | percentage damage caused to the plant, AMARE |
| --- | --- |
| COc1ccc(-n2c(=O)c(C(=O)Nc3nnnn3C)nc3ccccc32)cc1F [Compound 5.033] | 5 (5=80-100%) |
| Cn1nnnc1NC(=O)c1nc2ccccc2n(-c2cccc([N+](=O)[O-])c2)c1=O [Compound 5.025] | 5 (5=80-100%) |
| Cn1nnnc1NC(=O)c1nc2ccccc2n(-c2ccc(Cl)cc2)c1=O [Compound 5.015] | 5 (5=80-100%) |
| Cn1ncnc1NC(=O)c1nc2ccccc2n(-c2ccccc2)c1=O [Compound 5.041] | 5 (5=80-100%) |
| Cc1nc2c(cc1F)cc(C(=O)Nc1nnnn1C)c(=O)n2-c1ccccc1 [Compound 6.003] | 5 (5=80-100%) |
| Cc1cccc(-n2c(=O)c(C(=O)Nc3nnnn3C)nc3ccccc32)n1 [Compound 5.003] | 5 (5=80-100%) |

tested on: Echinochloa crus-galli (ECHCG); assay: Post-emergence glasshouse herbicide test; assay type: in vivo; settings: POST Application, 1000 g/h, after 13 days
Procedure: as §1

| SMILES | percentage damage caused to the plant, ECHCG |
| --- | --- |
| COc1ccc(-n2c(=O)c(C(=O)Nc3nnnn3C)nc3ccccc32)cc1F [Compound 5.033] | 5 (5=80-100%) |
| Cn1nnnc1NC(=O)c1nc2ccccc2n(-c2cccc([N+](=O)[O-])c2)c1=O [Compound 5.025] | 5 (5=80-100%) |
| Cn1nnnc1NC(=O)c1nc2ccccc2n(-c2ccc(Cl)cc2)c1=O [Compound 5.015] | 5 (5=80-100%) |
| Cn1ncnc1NC(=O)c1nc2ccccc2n(-c2ccccc2)c1=O [Compound 5.041] | 1 (1=0-19%) |
| Cc1nc2c(cc1F)cc(C(=O)Nc1nnnn1C)c(=O)n2-c1ccccc1 [Compound 6.003] | 4 (4=60-79%) |
| Cc1cccc(-n2c(=O)c(C(=O)Nc3nnnn3C)nc3ccccc32)n1 [Compound 5.003] | 5 (5=80-100%) |

tested on: Ipomoea hederacea (IPOHE); assay: Post-emergence glasshouse herbicide test; assay type: in vivo; settings: POST Application, 1000 g/h, after 13 days
Procedure: as §1

| SMILES | percentage damage caused to the plant, IPOHE |
| --- | --- |
| COc1ccc(-n2c(=O)c(C(=O)Nc3nnnn3C)nc3ccccc32)cc1F [Compound 5.033] | 5 (5=80-100%) |
| Cn1nnnc1NC(=O)c1nc2ccccc2n(-c2cccc([N+](=O)[O-])c2)c1=O [Compound 5.025] | 4 (4=60-79%) |
| Cn1nnnc1NC(=O)c1nc2ccccc2n(-c2ccc(Cl)cc2)c1=O [Compound 5.015] | 5 (5=80-100%) |
| Cn1ncnc1NC(=O)c1nc2ccccc2n(-c2ccccc2)c1=O [Compound 5.041] | 5 (5=80-100%) |
| Cc1nc2c(cc1F)cc(C(=O)Nc1nnnn1C)c(=O)n2-c1ccccc1 [Compound 6.003] | 5 (5=80-100%) |
| Cc1cccc(-n2c(=O)c(C(=O)Nc3nnnn3C)nc3ccccc32)n1 [Compound 5.003] | 5 (5=80-100%) |

tested on: Solanum nigrum (SOLNI); assay: Post-emergence glasshouse herbicide test; assay type: in vivo; settings: POST Application, 1000 g/h, after 13 days
Procedure: as §1

| SMILES | percentage damage caused to the plant, SOLNI |
| --- | --- |
| COc1ccc(-n2c(=O)c(C(=O)Nc3nnnn3C)nc3ccccc32)cc1F [Compound 5.033] | 5 (5=80-100%) |
| Cn1nnnc1NC(=O)c1nc2ccccc2n(-c2cccc([N+](=O)[O-])c2)c1=O [Compound 5.025] | 5 (5=80-100%) |
| Cn1nnnc1NC(=O)c1nc2ccccc2n(-c2ccc(Cl)cc2)c1=O [Compound 5.015] | 5 (5=80-100%) |
| Cn1ncnc1NC(=O)c1nc2ccccc2n(-c2ccccc2)c1=O [Compound 5.041] | 5 (5=80-100%) |
| Cc1nc2c(cc1F)cc(C(=O)Nc1nnnn1C)c(=O)n2-c1ccccc1 [Compound 6.003] | 5 (5=80-100%) |
| Cc1cccc(-n2c(=O)c(C(=O)Nc3nnnn3C)nc3ccccc32)n1 [Compound 5.003] | 5 (5=80-100%) |

tested on: Setaria faberi (SETFA); assay: Post-emergence glasshouse herbicide test; assay type: in vivo; settings: POST Application, 1000 g/h, after 13 days
Procedure: as §1, with “Compounds ae applied at 1000 g/h.” left out

| SMILES | percentage damage caused to the plant, SETFA |
| --- | --- |
| COc1ccc(-n2c(=O)c(C(=O)Nc3nnnn3C)nc3ccccc32)cc1F [Compound 5.033] | 4 (4=60-79%) |
| Cn1nnnc1NC(=O)c1nc2ccccc2n(-c2cccc([N+](=O)[O-])c2)c1=O [Compound 5.025] | 5 (5=80-100%) |
| Cn1nnnc1NC(=O)c1nc2ccccc2n(-c2ccc(Cl)cc2)c1=O [Compound 5.015] | 5 (5=80-100%) |
| Cn1ncnc1NC(=O)c1nc2ccccc2n(-c2ccccc2)c1=O [Compound 5.041] | 1 (1=0-19%) |
| Cc1nc2c(cc1F)cc(C(=O)Nc1nnnn1C)c(=O)n2-c1ccccc1 [Compound 6.003] | 3 (3=40-59%) |
| Cc1cccc(-n2c(=O)c(C(=O)Nc3nnnn3C)nc3ccccc32)n1 [Compound 5.003] | 5 (5=80-100%) |

tested on: Alopecurus myosuroides (ALOMY); assay: Pre-emergence glasshouse herbicide test; assay type: in vivo; settings: PRE Application, 1000 g/h, after 13 days
Procedure: as §1

| SMILES | percentage damage caused to the plant, ALOMY |
| --- | --- |
| COc1ccc(-n2c(=O)c(C(=O)Nc3nnnn3C)nc3ccccc32)cc1F [Compound 5.033] | 2 (2=20-39%) |
| Cn1nnnc1NC(=O)c1nc2ccccc2n(-c2cccc([N+](=O)[O-])c2)c1=O [Compound 5.025] | 2 (2=20-39%) |
| Cn1nnnc1NC(=O)c1nc2ccccc2n(-c2ccc(Cl)cc2)c1=O [Compound 5.015] | 2 (2=20-39%) |
| Cn1ncnc1NC(=O)c1nc2ccccc2n(-c2ccccc2)c1=O [Compound 5.041] | 1 (1=0-19%) |
| Cc1nc2c(cc1F)cc(C(=O)Nc1nnnn1C)c(=O)n2-c1ccccc1 [Compound 6.003] | 1 (1=0-19%) |
| Cc1cccc(-n2c(=O)c(C(=O)Nc3nnnn3C)nc3ccccc32)n1 [Compound 5.003] | 5 (5=80-100%) |

tested on: Amaranthus retoflexus (AMARE); assay: Pre-emergence glasshouse herbicide test; assay type: in vivo; settings: PRE Application, 1000 g/h, after 13 days
Procedure: as §1

| SMILES | percentage damage caused to the plant, AMARE |
| --- | --- |
| COc1ccc(-n2c(=O)c(C(=O)Nc3nnnn3C)nc3ccccc32)cc1F [Compound 5.033] | 5 (5=80-100%) |
| Cn1nnnc1NC(=O)c1nc2ccccc2n(-c2cccc([N+](=O)[O-])c2)c1=O [Compound 5.025] | 5 (5=80-100%) |
| Cn1nnnc1NC(=O)c1nc2ccccc2n(-c2ccc(Cl)cc2)c1=O [Compound 5.015] | 5 (5=80-100%) |
| Cn1ncnc1NC(=O)c1nc2ccccc2n(-c2ccccc2)c1=O [Compound 5.041] | 5 (5=80-100%) |
| Cc1nc2c(cc1F)cc(C(=O)Nc1nnnn1C)c(=O)n2-c1ccccc1 [Compound 6.003] | 5 (5=80-100%) |
| Cc1cccc(-n2c(=O)c(C(=O)Nc3nnnn3C)nc3ccccc32)n1 [Compound 5.003] | 5 (5=80-100%) |

tested on: Echinochloa crus-galli (ECHCG); assay: Pre-emergence glasshouse herbicide test; assay type: in vivo; settings: PRE Application, 1000 g/h, after 13 days
Procedure: as §1

| SMILES | percentage damage caused to the plant, ECHCG |
| --- | --- |
| COc1ccc(-n2c(=O)c(C(=O)Nc3nnnn3C)nc3ccccc32)cc1F [Compound 5.033] | 5 (5=80-100%) |
| Cn1nnnc1NC(=O)c1nc2ccccc2n(-c2cccc([N+](=O)[O-])c2)c1=O [Compound 5.025] | 3 (3=40-59%) |
| Cn1nnnc1NC(=O)c1nc2ccccc2n(-c2ccc(Cl)cc2)c1=O [Compound 5.015] | 5 (5=80-100%) |
| Cn1ncnc1NC(=O)c1nc2ccccc2n(-c2ccccc2)c1=O [Compound 5.041] | 1 (1=0-19%) |
| Cc1nc2c(cc1F)cc(C(=O)Nc1nnnn1C)c(=O)n2-c1ccccc1 [Compound 6.003] | 3 (3=40-59%) |
| Cc1cccc(-n2c(=O)c(C(=O)Nc3nnnn3C)nc3ccccc32)n1 [Compound 5.003] | 5 (5=80-100%) |

tested on: Ipomoea hederacea (IPOHE); assay: Pre-emergence glasshouse herbicide test; assay type: in vivo; settings: PRE Application, 1000 g/h, after 13 days
Procedure: as §1

| SMILES | percentage damage caused to the plant, IPOHE |
| --- | --- |
| COc1ccc(-n2c(=O)c(C(=O)Nc3nnnn3C)nc3ccccc32)cc1F [Compound 5.033] | 5 (5=80-100%) |
| Cn1nnnc1NC(=O)c1nc2ccccc2n(-c2cccc([N+](=O)[O-])c2)c1=O [Compound 5.025] | 4 (4=60-79%) |
| Cn1nnnc1NC(=O)c1nc2ccccc2n(-c2ccc(Cl)cc2)c1=O [Compound 5.015] | 5 (5=80-100%) |
| Cn1ncnc1NC(=O)c1nc2ccccc2n(-c2ccccc2)c1=O [Compound 5.041] | 2 (2=20-39%) |
| Cc1nc2c(cc1F)cc(C(=O)Nc1nnnn1C)c(=O)n2-c1ccccc1 [Compound 6.003] | 3 (3=40-59%) |
| Cc1cccc(-n2c(=O)c(C(=O)Nc3nnnn3C)nc3ccccc32)n1 [Compound 5.003] | 5 (5=80-100%) |

tested on: Setaria faberi (SETFA); assay: Pre-emergence glasshouse herbicide test; assay type: in vivo; settings: PRE Application, 1000 g/h, after 13 days
Procedure: as §1

| SMILES | percentage damage caused to the plant, SETFA |
| --- | --- |
| COc1ccc(-n2c(=O)c(C(=O)Nc3nnnn3C)nc3ccccc32)cc1F [Compound 5.033] | 1 (1=0-19%) |
| Cn1nnnc1NC(=O)c1nc2ccccc2n(-c2cccc([N+](=O)[O-])c2)c1=O [Compound 5.025] | 2 (2=20-39%) |
| Cn1nnnc1NC(=O)c1nc2ccccc2n(-c2ccc(Cl)cc2)c1=O [Compound 5.015] | 5 (5=80-100%) |
| Cn1ncnc1NC(=O)c1nc2ccccc2n(-c2ccccc2)c1=O [Compound 5.041] | 1 (1=0-19%) |
| Cc1nc2c(cc1F)cc(C(=O)Nc1nnnn1C)c(=O)n2-c1ccccc1 [Compound 6.003] | 1 (1=0-19%) |
| Cc1cccc(-n2c(=O)c(C(=O)Nc3nnnn3C)nc3ccccc32)n1 [Compound 5.003] | 5 (5=80-100%) |

tested on: Solanum nigrum (SOLNI); assay: Pre-emergence glasshouse herbicide test; assay type: in vivo; settings: PRE Application, 1000 g/h, after 13 days
Procedure: as §1

| SMILES | percentage damage caused to the plant, SOLNI |
| --- | --- |
| COc1ccc(-n2c(=O)c(C(=O)Nc3nnnn3C)nc3ccccc32)cc1F [Compound 5.033] | 5 (5=80-100%) |
| Cn1nnnc1NC(=O)c1nc2ccccc2n(-c2cccc([N+](=O)[O-])c2)c1=O [Compound 5.025] | 5 (5=80-100%) |
| Cn1nnnc1NC(=O)c1nc2ccccc2n(-c2ccc(Cl)cc2)c1=O [Compound 5.015] | 5 (5=80-100%) |
| Cn1ncnc1NC(=O)c1nc2ccccc2n(-c2ccccc2)c1=O [Compound 5.041] | 5 (5=80-100%) |
| Cc1nc2c(cc1F)cc(C(=O)Nc1nnnn1C)c(=O)n2-c1ccccc1 [Compound 6.003] | 5 (5=80-100%) |
| Cc1cccc(-n2c(=O)c(C(=O)Nc3nnnn3C)nc3ccccc32)n1 [Compound 5.003] | 5 (5=80-100%) |
